Results on three compounds are retold here after patent US4956357A (priority 1984, dated 1990).

Series [1] concerns gynecomastia. The conditions noted are these: treatment of gynecomastia; cited from earlier work.
Another series relates to human androgen receptor. The text has this: It is also believed that an androgen-action,rather than an estrogen action, acts to prevent breast enlargement.
For series [2] the following is noted: cited from earlier work.
Series [3] deals with gynecomastia. To be noted: alcoholic solution applied to the skin; cited from earlier work.
The next series deals with gonadotropin. To be noted: in vivo; cited from earlier work.

In the case of `C[C@]12CC[C@H]3[C@@H](CCC4=CC(=O)CC[C@@]43C)[C@@H]1CC[C@@H]2O` [testosterone], in the series on gynecomastia [1], the breast size entry is listed as “increased breast size”.
For the compound `C[C@]12CCC(=O)C[C@@H]1CC[C@@H]1[C@@H]2CC[C@]2(C)[C@@H](O)CC[C@@H]12` [DHT, dihydrotestosterone], the “binding to human androgen receptor” value in the series with human androgen receptor is given as “high affinity”. The oral stability entry in series [2] (oral) is recorded as “destroyed before reaching the circulatory system”. Moreover, the half-life result in series [2] (parenteral) is “very short half-life”. Further, the “plasma DHT levels (systemic absorption)” value in the series on gynecomastia [3] is recorded as “elevations in its plasma levels”.
`CCC(=O)O[C@H]1CC[C@H]2[C@@H]3CC[C@H]4CC(=O)CC[C@]4(C)[C@H]3CC[C@]12C` [Dihydrotestosterone propionate]: in the series on gonadotropin, the duration of action result is reported as “one-to three” and the gonadotropin suppression entry is “not effective in gonadotropin suppression”.
